Results on 97 compounds are retold here after ChEMBL document CHEMBL3507680, “University of Dundee, Gates Library screen for HepG2 cell viability”.

This data set is described as follows: Human HepG2 cell viability assay in 384 well format. The following applies: HepG2 cells, read-out: Inhibition. Format: toxicity, cell-based. Further details: dose 125 nL, time 70.5 hour; cytotoxicity at 70.5 h: concentration not given beside the values.
On to `CC(C)CCN(C)C(=O)c1cc(CN2CCC(O)CC2)on1`, for which the cytotoxicity at 70.5 h was -0.516%.
For `Cc1nc[nH]c1CN1CCN(C(=O)CN2CCCC2)[C@H]2CS(=O)(=O)C[C@H]21`, the cytotoxicity at 70.5 h worked out at 3.25%.
In the case of `COCc1nc(CNC(=O)c2cc(C)c(C)[nH]c2=O)no1` it was 2.71%.
Regarding `CCc1nccn1CCC(=O)N1CCN(c2ccccc2C)CC1C` (configuration not stated), the cytotoxicity at 70.5 h was -10.2%.
For `CCCN1CCN(C(=O)c2cc3ccccc3cn2)[C@H]2CS(=O)(=O)C[C@H]21`, the cytotoxicity at 70.5 h is -12%.
In the case of `COCc1ccc(C(=O)N2CCC(Oc3ccccc3OC)CC2)s1` it was -15%; in that of `CC(C)CN1CCc2[nH]cnc2C12CCN(C(=O)c1ccnn1C)CC2`, -2.45%; in that of `Cc1nc(CC(=O)N2CCN(CCOc3ccccc3)CC2)cs1`, -10.1%.
Consider `c1ccc(CN2CCC(CCNc3ncnc4c3CCNCC4)C2)cc1` (configuration not stated), for which the cytotoxicity at 70.5 h was -2.61%.
In the case of `CCCN1C(=O)[C@H]2CC[C@@H]1CN(S(=O)(=O)c1cccc(Cl)c1)C2` it was -9.33%.
In the case of `CC(C)c1ccc(C#N)c(N2CC(C)(C)[C@@](C)(O)C2)n1` it was -17.8%.
Next, `C[C@@H]1CN(C2CCN(Cc3nn(C)c4cccc(Cl)c34)CC2)C[C@H](C)O1`: 25.7%; `CC[C@@]1(O)CCN(C(=O)CCc2cnn(C)c2)C[C@H]1O`: -9.56%.
Turning to `Cc1n[nH]c(C)c1CN(C)C(C(=O)O)c1ccc2c(c1)OCO2` (configuration not stated), the cytotoxicity at 70.5 h stood at 6.84%.
Next, `CC(=O)c1ccc(NC(=O)N(CCN(C)C)Cc2ccc(C)s2)cc1`: 2.42%; `CCNc1ncc(C(=O)N(C)Cc2nc3ccccc3n2C)cn1`: -2.99%.
Next, `CC(c1ccccc1)n1c(SCC(=O)O)nnc1-c1ccn[nH]1` (configuration not stated): -5.88%; `O=C(O)C1(Oc2ccc3c(c2)OCO3)CCN(C2CCOCC2)CC1`: -14.1%; `CC(C)(C)c1noc(-c2nc3c([nH]2)CCCNC3=O)n1`: -4.9%.
Turning to `CCCC1COCCN1Cc1ccc(NC(C)=O)cc1` (configuration not stated), the cytotoxicity at 70.5 h is -3.46%.
Take `CCNC(=O)[C@@H]1C[C@@H](NC(=O)c2ccc(C)cc2O)CN1CCCSC`: the cytotoxicity at 70.5 h was -3.38%.
Next, `Cc1cc2cccc(C(=O)N3CCOC4(CNCCOC4)C3)c2o1` (configuration not stated): 32.7%; `CCn1nc(C)c(CCNC(=O)C2CCCN(C3CCCC3)C2)c1C` (configuration not stated): 20.4%.
Take `COc1cccc(N2CCN(CC[C@H](O)c3ccccc3)CC2=O)c1`: the cytotoxicity at 70.5 h was -10.7%.
In the case of `CCCC1CCN(C(=O)c2coc(COc3ccc(OC)cc3)n2)C1` (configuration not stated) it was -3.1%.
In the case of `O=C(Cn1ccnc1)N1CCC(n2cc(-c3cccc(Cl)c3)nn2)CC1` it was 22.5%.
In the case of `CCCc1nnc(N2CC[C@](C)(O)[C@H](C)C2)s1` it was 8.74%.
On to `COCCC(=O)N[C@H]1CN(c2nc(C)c3c(n2)CCCC3)C[C@@H]1C1CC1`, for which the cytotoxicity at 70.5 h was -9.64%.
In the case of `CCC(C(=O)N1CCN(C(=O)N2CCOCC2)CC1)n1cccn1` (configuration not stated), the cytotoxicity at 70.5 h was -5.93%.
Next, `Cc1c(CN2CC[C@@H](N3CCC(O)CC3)[C@H](O)C2)[nH]c2ccc(F)cc12`: -2.56%; `CCn1c(CN(C)C)nnc1C1CCN(Cc2cnc(C)nc2)CC1`: -5.5%.
In the case of `Cc1cccc(-n2ncc3c2CCCC3NCc2cccc(O)c2)c1C` (configuration not stated) it was -3.55%.
Next, `Cc1ccsc1-c1nccn1CCN(C)S(C)(=O)=O`: -1.88%.
As for `Cc1ccc2c(c1)SCC(=O)N2CC(=O)N1CCCC1c1nccs1` (configuration not stated), the cytotoxicity at 70.5 h was -14%.
In the case of `O=C(c1cccnc1O)N1CCCC2(C=Cc3ccccc3O2)CC1` (configuration not stated), the cytotoxicity at 70.5 h was -4.51%.
In the case of `CNc1ncc(CN(C)C(=O)c2c[nH]nc2-c2cccc(F)c2)cn1` it was -6.7%.
In the case of `CC(C)N1CCC(C(=O)N2CCC(C(O)c3nccn3C)CC2)CC1` (configuration not stated) it was -11.2%; in that of `CCOCc1nc(CSc2ccncc2)n(C)n1`, 6.25%.
In the case of `CCOC(=O)N1CCN(C(=O)C2Cc3ccccc3CN2C)CC1` (configuration not stated) it was 2.75%.
In the case of `O=C1CC2(CCCC2)CC(=O)N1Cc1ncccn1`, the cytotoxicity at 70.5 h is 19.8%.
In the case of `CCc1oc(C(=O)N2CCC(N(CC)C(C)=O)C2)cc1CN(CC)CC` (configuration not stated) it was -12.3%; in that of `Cc1nc(C)n(CC(C)C(=O)N2CCC(NS(C)(=O)=O)CC2)n1` (configuration not stated), 34.2%; in that of `CC(C)CS(=O)(=O)CCNC(=O)Nc1cccc2ncccc12`, 19.9%.
In the case of `COc1ccc(C(=O)C2CCCN(Cc3ccccc3O)C2)c(OC)c1` (configuration not stated) it was 35.7%; in that of `COc1cc(C)c(CN2CCC3(CC2)[C@H](O)C[C@@H]3OCCN)cc1C`, 28.1%.
For the compound `Cc1ccsc1CN(CCN(C)C)C(=O)c1ccccc1C#N`, the cytotoxicity at 70.5 h was -0.2%.
In the case of `CCN1CCCC(c2c(-c3ccccc3)ncn2CCCO)C1` (configuration not stated) it was -8.57%.
Next, `CCn1c(C)nnc1SCCNc1cc(N2CCOCC2)ncn1`: -18.8%.
`CC(Cc1ccccn1)N(C)Cc1ccc2c(c1)CCO2` (configuration not stated): the cytotoxicity at 70.5 h is -8.85%.
Next, `CCc1cc(CN(C)C(=O)C2CC(=O)N(c3cccc(O)c3)C2)on1` (configuration not stated): -1.3%.
In the case of `COCCC1(CO)CCCN(CCCc2ccccc2)C1` (configuration not stated) it was 22.6%.
On to `O=C(c1csc(-c2ccc(C(F)(F)F)cc2)n1)N1CCCNCC1`, for which the cytotoxicity at 70.5 h is -2.7%.
Next, `CCC[C@@H]1CN(C(=O)c2ccccc2-c2ccccc2)C[C@H]1N(C)C`: 0.165%; `CN(C)c1nc2c(c(NCc3cc(O)ncn3)n1)CCCC2`: -4.94%; `CC(C)Nc1cc(N2CCC(n3cc(C4CC4)nn3)CC2)ncn1`: 23.9%.
In the case of `Cc1cccc(CN2CCCC3(CCN(C4CCSCC4)C3)C2=O)c1` (configuration not stated), the cytotoxicity at 70.5 h came out at 7.94%.
In the case of `Cc1nc(CN2CCCCC2CCc2ccc(O)cc2)no1` (configuration not stated) it was 6.16%; in that of `Cc1ccccc1C1CCCN(C(=O)c2c[nH]c(=O)c(Cl)c2)C1` (configuration not stated), -12%; in that of `O=C(O)C(c1ccc2[nH]ccc2c1)N1CCOCC1` (configuration not stated), 9.07%.
In the case of `Cc1ccsc1CNc1ccccc1C(=O)N1CCNC(=O)C1` it was 16.9%.
In the case of `O=S(=O)(c1cccc(F)c1)N1C[C@@H]2CC[C@H](C1)N(Cc1ccccc1)C2` it was -12.7%; in that of `CCN1CC(C(=O)N(C)Cc2cc3cc(F)ccc3[nH]2)CC1=O` (configuration not stated), -0.954%; in that of `CC(C)Oc1ccc(CN2CCCC(N3CCCC3)C2)cc1CO` (configuration not stated), 2.77%.
As to `O=C(c1ccc2cccc(F)c2n1)N1CCN(CCn2cccc2)CC1`, the cytotoxicity at 70.5 h was determined as 9.26%.
With `O=C(c1ccc(-c2cccc3c2CCNC3)o1)N1CCOCC1`, the cytotoxicity at 70.5 h was -6.54%.
In the case of `Cc1csc2ncn(C(C)Cc3cccnc3)c(=O)c12` (configuration not stated) it was -4.53%.
Next, `O=c1[nH]c(-c2ccc(F)c(F)c2)nc2c1CCNC2`: -1.92%.
Next, `COCCCC1(CO)CCCN(CCc2ccccn2)C1` (configuration not stated): 0.702%; `COc1cnc(N2CCCN(c3ccc(F)cc3)CC2)nc1`: 8.19%; `CN(Cc1n[nH]c(=O)n1Cc1ccco1)S(C)(=O)=O`: 2.27%.
Take `NC(=O)c1csc(N2C[C@@H](CN3CCCCC3)[C@@H](CO)C2)n1`: the cytotoxicity at 70.5 h is -6.7%.
Next, `Cc1cc(CN(C)C(=O)C(c2ccccc2C)N(C)C)on1` (configuration not stated): -6.35%.
Next, `CCCN(Cc1cccnc1)C(=O)C1CCCN(C)C1` (configuration not stated): 2.68%; `Cc1nc[nH]c1CN1CCC(C2CCN(CCc3ccccc3)C2)CC1` (configuration not stated): -1.67%; `Cc1ccc(C(=O)N[C@H]2CN(CCO)C[C@@H]2C2CC2)cc1Cl`: 1.11%.
In the case of `CCc1cc(N2CC(N3CCCCC3C)C2)n2nccc2n1` (configuration not stated) it was 6.74%.
Consider `C=C(C)COc1cccc(C(=O)N(CC)Cc2noc(C)n2)c1`, for which the cytotoxicity at 70.5 h was -3.04%.
With `COc1ccc(-c2n[nH]cc2CN(C)Cc2nonc2C)c(F)c1`, the cytotoxicity at 70.5 h was -3.77%.
For the compound `CCC[C@@H]1CN(Cc2cc(C#N)n(C)c2C)C[C@H]1NS(C)(=O)=O`, the cytotoxicity at 70.5 h was -6.42%.
Regarding `CCc1cnc(N)nc1NCCCN1CCCCC1CO` (configuration not stated), the cytotoxicity at 70.5 h was -8.8%.
Next, `COCCn1ccnc1C1CCCN(c2cc(OC)nc(N)n2)C1` (configuration not stated): 31.1%.
In the case of `Cc1nccn1CCN(C)c1cc(C(C)C)nc2ccnn12` it was -2.26%; in that of `Nc1ccnc(-c2cc(NC3CCNCC3)nc3[nH]ccc23)c1`, -3.27%.
Next, `Cc1ccc(-n2c(COCC(=O)O)nc3c(C)cccc32)nc1`: -4.5%; `COCc1nc(NC(C)Cc2cc(C)n[nH]2)c2cnn(C)c2n1` (configuration not stated): -0.0562%; `CCC(NC(=O)c1cc(CC(C)C)nn1C)c1cc(C)ccn1` (configuration not stated): -19.2%.
With `Cc1ccc(S(=O)(=O)N2CCN(C)C3(CCC(=O)N(C)CC3)C2)s1` (configuration not stated), the cytotoxicity at 70.5 h is -5.58%.
Next, `O=C(c1cccc(S(=O)(=O)NCCc2cscn2)c1)N1CCOCC1`: -1.05%; `COc1ccccc1OC1CCN(c2nccc(N)n2)CC1`: 19.5%.
For the compound `O=C1NC[C@@]2(C(=O)O)CN(Cc3ccc(Oc4ccccc4)cc3)C[C@@H]12`, the cytotoxicity at 70.5 h is -1.43%.
In the case of `O=C(CCC1CCCN(C(=O)CCc2ccc(F)c(F)c2)C1)NC1CC1` (configuration not stated) it was -8.38%.
Turning to `COc1cc(CN2CCC(O)(c3ccc(C)cn3)CC2)cc(Cl)c1OC`, the cytotoxicity at 70.5 h is 17.5%.
In the case of `NC(=O)c1cccnc1N1CCN(c2ncnc3c2CCNC3)CC1` it was -1.91%; in that of `Cc1cnc(NCCc2c[nH]cn2)nc1-c1ccnn1C`, -11.6%.
For `O=C1N(CC2CCC2)CCCC12CCN(S(=O)(=O)c1cccnc1)C2` (configuration not stated), the cytotoxicity at 70.5 h was -4.23%.
Consider `COc1ccccc1-c1ncc(CN2C[C@H](O)[C@@H](N3CCCC3)C2)s1`, for which the cytotoxicity at 70.5 h is -14.6%.
In the case of `Cn1ccc(C(=O)N2CCCN(CCCc3ccccc3)CC2)cc1=O` it was -17.2%.
